Results taken from US20260027380A1, “TECHNIQUES FOR MAGNETIC NANOCLUSTER-BASED COMBINATION THERAPY” (William Marsh Rice University, priority 2022, published 2026).

Legend:
Assay type in all cases: cell-based, murine
MC-38 cells [1] = experiment: Detection of intracellular free radicals (H2DCFDA); settings: without AMF
Experimental: Additionally, intracellular free radical generation by IONC-AAPH was measured using 2′,7′-dichlorodihydrofluorescein diacetate (H2DCFDA) as an intracellular free radical probe. H2DCFDA is a non-fluorescent cell-permeant compound. Upon oxidation by free radicals, H2DCFDA is converted to a highly fluorescent 2′,7′-dichlorofluorescein (DCF). MC-38 cells (murine colon adenocarcinoma cell line) were pre-incubated with IONC or IONC-AAPH (at 300 μg Fe/mL concentration) for 1 h to allow internalization into cells. The intracellular IONC and IONC-AAPH were 0.79±0.16 and 0.87±0.12 pg Fe/cell, respectively, as quantified by a ferrozine-based colorimetric assay. After internalization, the cells were exposed to AMF for 1 h. The intracellular free radicals in the MC-38 cells were then examined with H2DCFDA through fluorescence microscopy and flow cytometry. FIG. 4 illustrates a flow cytometry analysis of intracellular free radicals in MC-38 cells detected via fluorescence from DCF. Further, FIG. 5 is a graph illustrating the quantification of intracellular free radicals (e.g., quantification of the mean fluorescence of DCF). The data in FIG. 5 represents the mean DCF fluorescence of each group +the standard error of mean (s.e.m.).
Detection of intracellular free radicals: The intracellular generation of free radicals was determined using H2DCFDA probe. […]

MC-38 cells [2] = experiment: Evaluation of F-actin morphology (phalloidin staining); settings: without heating (no AMF)
Source text: To examine the effect of heating and free radicals on the actin cytoskeleton, actin filaments (F-actin) were stained with fluorescent phalloidin. […] In cells subjected to heating and free radicals but still showing phalloidin staining, the actin filaments were further retracted and more condensed compared with cells under heating only. FIG. 8 illustrates a quantification of MC-38 cells with F-actin structure in the above-described morphological analysis. […] In the cells with phalloidin staining, the actin filaments were further retracted and more condensed compared with the hyperthermia only group.
Evaluation of F-actin morphology: The F-actin morphology of MC-38 cells was evaluated by phalloidin staining. MC-38 cells were seeded in 4-compartment cell culture dishes and cultured overnight. The cells were then treated with 300 μg Fe/mL of IONC-AAPH or IONC at 37° C. or under AMF for 90 min. Four hours after the treatment, the cells were fixed, permeabilized, and blocked as described above. Then the cells were incubated with Alexa Fluor 568-labeled phalloidin for 30 min at room temperature, followed by staining with Hoechst 33342 for 10 min at room temperature. Images were collected using a Nikon Al-Rsi confocal microscope.

MC-38 cells [3] = experiment: Quantification of intracellular GSH (GSH-Glo); settings: without AMF, 37° C. for 4 h
Experimental: Glutathione (GSH) is an antioxidant that plays an important role in the scavenging of intracellular free radicals and protecting the cells against oxidative damage. GSH depletion will disrupt the redox homeostasis and lead to oxidative stress and eventual cell death. MC-38 cells were treated with 300 μg Fe/mL of IONC or IONC-AAPH and subjected to AMF for 2 hours. The intracellular GSH was quantified after 2 hours of incubation at 37° C. Intracellular GSH was also measured for cells treated with AAPH, IONC, or IONC-AAPH, respectively, without AMF and incubated at 37° C. for 4 h. The intracellular GSH was quantified using a luminescence-based GSH-Glo glutathione assay. FIG. 11 illustrates a GSH depletion measurement of the MC-38 cells 2 hours after treatment. […] In contrast, treating cells with IONC-AAPH under AMF (i.e., with both heating and free radicals) decreased the GSH/GSSG ratio to 55% of that in the control cells.
Quantification of intracellular GSH: MC-38 cells were seeded in 4-compartment cell culture dishes at a density of 1×10^5 cells per compartment and cultured overnight. Then the cells were treated with 300 μg Fe/mL of IONC-AAPH or IONC at 37° C. or under AMF for 2 h. Two hours after the treatment, the culture medium was removed and the intracellular GSH was quantified using a luminescence-based GSH-Glo Glutathione Assay according to the manufacturer's instructions.

MC-38 cells [4] = experiment: Lipid peroxidation (MDA level); settings: without AMF
Experimental: Further, the effect of IONC-AAPH induced heat and free radicals on lipids was quantified by measuring the level of malondialdehyde (MDA). Malondialdehyde (MDA) is one of the final products of lipid peroxidation. MDA is a widely used biomarker of oxidative stress. Accordingly, the extent of lipid peroxidation after IONC-AAPH treatment was measured via MDA levels. FIG. 12 illustrates a quantification of MDA levels in MC-38 cells 2 hours after treatment. It was observed that the MC-38 cells treated with free AAPH, IONC, and IONC-AAPH, respectively, without AMF, as well as cells treated with IONC under AMF had some increase in MDA levels compared with that of control cells, as shown in FIG. 12. The low levels of lipid peroxidation in these groups may have resulted from the free radicals generated from the slow decomposition of AAPH at 37° C., or the IONC induced fenton/fenton-like reaction, or their combination (IONC-AAPH without AMF).
Determination of lipid peroxidation: The lipid peroxidation of MC-38 cells was determined by measuring the production of malondialdehyde (MDA). MC-38 cells cultured in 4-compartment cell culture dishes were treated with 300 μg Fe/mL of IONC-AAPH or IONC at 37° C. or under AMF for 2 h. Two hours post the treatment, the cells were lysed, and the MDA levels were quantified using a fluorescence-based MDA Assay Kit following the manufacturer's instructions.

SMILES: CC(C)(N=NC(C)(C)C(=N)N)C(=N)N.Cl.Cl [AAPH, 2,2′-azobis(2-amidinopropane) dihydrochloride]
- intracellular free radicals (DCF fluorescence) (MC-38 cells [1]): negligible fluorescence
- F-actin morphology (MC-38 cells [2]): well organized and elongated
- change in GSH to GSSG ratio (MC-38 cells [3]): did not affect the GSH to GSSG ratio
- MDA level vs control cells (MC-38 cells [4]): some increase
